Assay: Partition coefficient octanol/water of Antide
Assay type: physicochemical
Conditions: 24 hours stirring at room temperature, RP-HPLC
Description: Partition coefficient: it was determined using octanol as organic phase and water as hydrophilic phase. The two phases were first saturated with each other for 24 hours at room temperature. Antide was then dissolved in the water phase at a concentration well below saturation. An equal volume of organic phase was subsequently added to the water phase and the mixture was kept under stirring for 24 hours at room temperature. Antide concentration in the two phases was determined by RP-HPLC and the partition coefficient was obtained from the ratio between the drug concentration in organic and water phase.
The resulting octanol/water coefficient was 8.56·10^−2

octanol/water coefficient: 8.56·10^−2
Substance: N—Ac-D-2-NaI, D-pCiPhe, D-3-Pal, Ser, NicLys, D-NicLys, Leu, Ilys, Pro, D-Ala, NH2 [Antide]
